{"source": "paper PMC7827406", "about": "“Structure–Activity Relationship (SAR) Study of Spautin-1 to Entail the Discovery of Novel NEK4 Inhibitors” (International Journal of Molecular Sciences, 2021)", "biological_target": "NEK4 (Homo sapiens, UniProt P51957)", "sequence (P51957 whole entry)": "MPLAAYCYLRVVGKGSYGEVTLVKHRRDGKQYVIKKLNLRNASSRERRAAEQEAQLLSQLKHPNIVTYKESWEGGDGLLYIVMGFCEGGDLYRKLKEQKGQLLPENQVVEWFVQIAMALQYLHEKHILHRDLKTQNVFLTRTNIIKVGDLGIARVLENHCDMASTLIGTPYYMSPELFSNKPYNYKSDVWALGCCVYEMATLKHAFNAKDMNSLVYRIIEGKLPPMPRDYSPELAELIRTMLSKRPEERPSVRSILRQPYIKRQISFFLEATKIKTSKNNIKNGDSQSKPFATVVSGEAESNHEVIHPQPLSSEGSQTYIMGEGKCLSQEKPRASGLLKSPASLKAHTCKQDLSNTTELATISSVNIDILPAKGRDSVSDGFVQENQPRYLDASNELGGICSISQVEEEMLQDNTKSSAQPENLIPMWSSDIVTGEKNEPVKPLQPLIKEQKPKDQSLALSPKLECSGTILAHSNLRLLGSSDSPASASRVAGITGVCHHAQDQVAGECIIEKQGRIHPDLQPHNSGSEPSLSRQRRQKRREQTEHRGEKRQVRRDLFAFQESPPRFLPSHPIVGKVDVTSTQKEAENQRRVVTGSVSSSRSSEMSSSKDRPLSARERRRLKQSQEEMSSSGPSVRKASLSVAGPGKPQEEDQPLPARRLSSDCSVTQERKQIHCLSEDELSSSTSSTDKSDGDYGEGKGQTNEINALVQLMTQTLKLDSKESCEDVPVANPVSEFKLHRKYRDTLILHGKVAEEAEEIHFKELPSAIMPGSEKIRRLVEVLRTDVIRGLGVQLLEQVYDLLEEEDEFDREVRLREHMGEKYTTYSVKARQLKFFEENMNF", "experiment": "radiometric kinase assay (Eurofins), IC50", "format": "biochemical", "data": [{"molecule": "Fc1ccc2ncnc(NCCc3ccc(Cl)cc3)c2c1", "note": "[5at, N-[2-(4-Chlorophenyl)Ethyl]-6-Fluoro-4-Quinazolinamine]", "values": [{"measurement": "IC50", "result": "~1000", "unit": "nM"}]}]}
